Patent US20230135093A1, “TRIAZOLYL DERIVATIVES AS GABA A ALPHA5 PAM” (Hoffmann-La Roche Inc., priority 2020, published 2023)

Legend:
[1] = molecular target: T1, h-GABA-A α5β3γ2 (Homo sapiens, UniProt P18507+P31644); test: [3H]flumazenil competition binding assay on membranes of HEK293 cells expressing GABAA receptors; conditions: Table 1; displacement of [3H]-Flumazenil (0.5 nM), HEK293 cells expressing human receptors, means of two determinations
T1 construct: expressed in transfected cells; host or cells: Xenopus laevis oocytes, micro-injected with subunit RNA
Outline: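 Competition for [3H]flumazenil (0.5 nM for α5 subunits) was measured at equilibrium (1 h, 4 °C, Krebs-tris buffer pH 7.5) on transiently transfected HEK293 membranes bearing human α5β3γ2 receptors, with 10^−5 M diazepam defining nonspecific binding. Ki values were derived from filtration and scintillation counting, averaged over duplicates.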

[2] = molecular target: T1, h-GABA-A α5β3γ2; test: Two-electrode voltage clamp electrophysiology in Xenopus oocytes expressing GABAA receptors (modulation of GABA EC20 current); format: cell-based; conditions: Table 1; for Efficacy (GABA) %: % modulation of GABA EC20 = 100*(Fold increase-1); for Fold increase h-GABA-A α5β3γ2 oocyte: Xenopus oocytes, GABA EC20, test compound at approximatively 30 fold its Ki
Outline: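 GABA EC20 currents in human α5β3γ2-expressing Xenopus oocytes, voltage-clamped at −80 mV (room temperature, pH 7.4), measured with and without compound at ~30× Ki applied 0.5 min into the second GABA pulse. % modulation = 100×(fold increase−1), taken from the extremum of the current ratio trace; at least 3 oocytes per concentration.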

| Compound | Ki [1] | Efficacy (GABA) % [2] | Fold increase h-GABA-A α5β3γ2 oocyte [2] |
| --- | --- | --- | --- |
| CCOC1CN(c2cnn(Cc3c(-c4ccc(Cl)cc4)nnn3C)c(=O)c2)C1 [Example 41, 2-[[5-(4-chlorophenyl)-3-methyl-triazol-4-yl]methyl]-5-(3-ethoxyazetidin-1-yl)pyridazin-3-one] | 37.7 nM | 47% | 1.47 |
| CC(C)O[C@@H]1CCN(c2cnn(Cc3c(-c4ccc(Cl)cc4F)nnn3C)c(=O)c2)C1 [Example 42, 2-((5-(4-chloro-2-fluoro-phenyl)-3-methyl-triazol-4-yl)methyl)-5-((3R)-3-isopropoxy-pyrrolidin-1-yl)pyridazin-3-one] | 18.3 nM | 71% | 1.71 |
| Cn1nnc(-c2ccc(Cl)cc2F)c1Cn1ncc(N2CC(Oc3ccccn3)C2)cc1=O [Example 43, 2-((5-(4-chloro-2-fluoro-phenyl)-3-methyl-triazol-4-yl)methyl)-5-(3-(2-pyridyl-oxy)azetidin-1-yl)pyridazin-3-one] | 7.9 nM | 97% | 1.97 |
| CC(C)N1CCN(c2cnn(Cc3c(-c4ccc(Cl)cc4F)nnn3C)c(=O)c2)C[C@@H]1C [Example 44, 2-((5-(4-chloro-2-fluoro-phenyl)-3-methyl-triazol-4-yl)methyl)-5-((3S)-4-isopropyl-3-methyl-piperazin-1-yl)pyridazin-3-one] | 4.4 nM | 82% | 1.82 |
| C[C@H]1CN(c2cnn(Cc3c(-c4ccc(Cl)cc4F)nnn3C)c(=O)c2)CCO1 [Example 45, 2-((5-(4-chloro-2-fluoro-phenyl)-3-methyl-triazol-4-yl)methyl)-5-((2S)-2-methylmorpholin-4-yl)pyridazin-3-one] | 1.4 nM | 115% | 2.15 |
| C[C@@H]1CN(c2cnn(Cc3c(-c4ccc(Cl)cc4F)nnn3C)c(=O)c2)CCO1 [Example 46, 2-((5-(4-chloro-2-fluoro-phenyl)-3-methyl-triazol-4-yl)methyl)-5-((2R)-2-methylmorpholin-4-yl)pyridazin-3-one] | 1.6 nM | 86% | 1.86 |
| CCc1nccn1C1CCN(c2cnn(Cc3c(C)nnn3-c3ccc(Cl)cc3F)c(=O)c2)CC1 [Example 47, 2-[[3-(4-chloro-2-fluoro-phenyl)-5-methyl-triazol-4-yl]methyl]-5-[4-(2-ethylimidazol-1-yl)-1-piperidyl]pyridazin-3-one] | 13.2 nM | 130% | 2.3 |
| CC(C)OC1CN(c2cnn(Cc3c(-c4ccc(Cl)cc4F)nnn3C)c(=O)c2)C1 [Example 48, 2-((5-(4-chloro-2-fluoro-phenyl)-3-methyl-triazol-4-yl)methyl)-5-(3-isopropoxyazetidin-1-yl)pyridazin-3-one] | 8.5 nM | 52% | 1.52 |
| Cn1nnc(-c2ccc(Cl)cc2F)c1Cn1ncc(N2CC(OC3CCC3)C2)cc1=O [Example 49, 2-((5-(4-chloro-2-fluoro-phenyl)-3-methyl-triazol-4-yl)methyl)-5-(3-(cyclobutoxy)azetidin-1-yl)pyridazin-3-one] | 8.3 nM | 73% | 1.73 |
| Cn1nnc(-c2ccc(Cl)cc2F)c1Cn1ncc(N2CC(OCC(F)(F)F)C2)cc1=O [Example 50, 2-((5-(4-chloro-2-fluoro-phenyl)-3-methyl-triazol-4-yl)methyl)-5-(3-(2,2,2-trifluoro-ethoxy)azetidin-1-yl)pyridazin-3-one] | 5.2 nM | 67% | 1.67 |
| CCCOC1CN(c2cnn(Cc3c(-c4ccc(Cl)cc4F)nnn3C)c(=O)c2)C1 [Example 51, 2-((5-(4-chloro-2-fluoro-phenyl)-3-methyl-triazol-4-yl)methyl)-5-(3-propoxyazetidin-1-yl)pyridazin-3-one] | 21.4 nM | 94% | 1.94 |
| Cn1nnc(-c2ccc(Cl)cc2F)c1Cn1ncc(N2CC(Oc3ccc(Cl)nc3)C2)cc1=O [Example 52, 2-[[5-(4-chloro-2-fluoro-phenyl)-3-methyl-triazol-4-yl]methyl]-5-[3-[(6-chloro-3-pyridyl)oxy]azetidin-1-yl]pyridazin-3-one] | 4.1 nM | 55% | 1.55 |
| Cn1nnc(-c2ccc(Cl)cc2F)c1Cn1ncc(N2CC(OC(F)F)C2)cc1=O [Example 53, 2-((5-(4-chloro-2-fluoro-phenyl)-3-methyl-triazol-4-yl)methyl)-5-(3-(difluoromethoxy)azetidin-1-yl)pyridazin-3-one] | 5.4 nM | 69% | 1.69 |
| Cn1nnc(-c2ccc(Cl)cc2F)c1Cn1ncc(N2CC(OCC(F)F)C2)cc1=O [Example 54, 2-[[5-(4-chloro-2-fluoro-phenyl)-3-methyl-triazol-4-yl]methyl]-5-[3-(2,2-difluoro-ethoxy)azetidin-1-yl]pyridazin-3-one] | 6.4 nM | 82% | 1.82 |
| Cn1nnc(-c2ccc(Cl)cc2F)c1Cn1ncc(N2CC(Oc3ccnc(Cl)c3)C2)cc1=O [Example 55, 2-[[5-(4-chloro-2-fluoro-phenyl)-3-methyl-triazol-4-yl]methyl]-5-[3-[(2-chloro-4-pyridyl)oxy]azetidin-1-yl]pyridazin-3-one] | 5.8 nM | 111% | 2.11 |
| COc1ccc(-c2cnn(Cc3c(C)nnn3-c3ccc(Cl)cc3F)c(=O)c2)cc1 [Example 56, 2-((3-(4-chloro-2-fluoro-phenyl)-5-methyl-triazol-4-yl)methyl)-5-(4-methoxyphenyl)pyridazin-3-one] | 21.6 nM | 50% | 1.5 |
| Cc1nnn(-c2ccc(Cl)cc2F)c1Cn1ncc(-c2ccnc(C(F)(F)F)c2)cc1=O [Example 57, 2-((3-(4-chloro-2-fluoro-phenyl)-5-methyl-triazol-4-yl)methyl)-5-(2-(trifluoromethyl)-4-pyridyl)pyridazin-3-one] | 43 nM | 64% | 1.64 |
| C[C@@H]1CN(c2cnn(Cc3c(-c4ccc(F)cc4F)nnn3C)c(=O)c2)C[C@H](C)O1 [Example 58, 2-[[5-(2,4-difluorophenyl)-3-methyl-triazol-4-yl]methyl]-5-[(2R,6S)-2,6-dimethylmorpholin-4-yl]pyridazin-3-one] | 7 nM | 138% | 2.38 |
| Cn1nnc(-c2ccc(Cl)cc2)c1Cn1ncc(N2CC(OCC(F)(F)F)C2)cc1=O [Example 59, 2-[[5-(4-chlorophenyl)-3-methyl-triazol-4-yl]methyl]-5-[3-(2,2,2-trifluoro-ethoxy)azetidin-1-yl]pyridazin-3-one] | 37.1 nM | 81% | 1.81 |
| Cn1nnc(-c2ccc(Cl)cc2)c1Cn1ncc(N2CC(OCC(F)F)C2)cc1=O [Example 60, 2-[[5-(4-chlorophenyl)-3-methyl-triazol-4-yl]methyl]-5-[3-(2,2-difluoro-ethoxy)azetidin-1-yl]pyridazin-3-one] | 45 nM | 76% | 1.76 |
| COc1ccc(-c2cnn(Cc3c(-c4ccc(Cl)cc4F)nnn3C)c(=O)c2)cc1 [Example 61, 2-((5-(4-chloro-2-fluoro-phenyl)-3-methyl-triazol-4-yl)methyl)-5-(4-methoxyphenyl)pyridazin-3-one] | 2.6 nM | 52% | 1.52 |
| COc1ccc(-c2cnn(Cc3c(-c4ccc(Cl)cc4F)nnn3C)c(=O)c2)cn1 [Example 62, 2-((5-(4-chloro-2-fluoro-phenyl)-3-methyl-triazol-4-yl)methyl)-5-(6-methoxy-3-pyridyl)pyridazin-3-one] | 8.2 nM | 50% | 1.5 |
| COc1cc(-c2cnn(Cc3c(-c4ccc(Cl)cc4F)nnn3C)c(=O)c2)ccn1 [Example 63, 2-((5-(4-chloro-2-fluoro-phenyl)-3-methyl-triazol-4-yl)methyl)-5-(2-methoxy-4-pyridyl)pyridazin-3-one] | 2.2 nM | 42% | 1.42 |
